Source: patent publication US20140335115A1 (priority 2013, published 2014)

Columns and labels:
Type in all cases: cell-based
cowpoxvirus = test system: cowpoxvirus
vaccinia virus = test system: vaccinia virus
monkeypoxvirus = test system: monkeypoxvirus

Measured: prevention of spread of virus to Jurkat T cells

O=C(NN1C(=O)[C@@H]2[C@@H]3C=C[C@@H]([C@H]4C[C@@H]34)[C@@H]2C1=O)c1ccc(C(F)(F)F)cc1 [ST246]
~90%: all assays above
